Results on 13 compounds are retold here after US8134015B2, “Compound inhibiting in vivo phosphorous transport and medicine containing the same” (Kyowa Hakko Kirin Co., Ltd., priority 2003, dated 2012).

pIC50: −log10 of the molar value. Where only a bound is given, the exact number is not on record here.

The target in one assay is T1, rat NaPi-2b (Rattus norvegicus, UniProt Q9JJ09).
T1 construct: expressed in transfected cells; host or cells: Xenopus oocytes injected with cRNA
T1 sequence (Q9JJ09 1-695): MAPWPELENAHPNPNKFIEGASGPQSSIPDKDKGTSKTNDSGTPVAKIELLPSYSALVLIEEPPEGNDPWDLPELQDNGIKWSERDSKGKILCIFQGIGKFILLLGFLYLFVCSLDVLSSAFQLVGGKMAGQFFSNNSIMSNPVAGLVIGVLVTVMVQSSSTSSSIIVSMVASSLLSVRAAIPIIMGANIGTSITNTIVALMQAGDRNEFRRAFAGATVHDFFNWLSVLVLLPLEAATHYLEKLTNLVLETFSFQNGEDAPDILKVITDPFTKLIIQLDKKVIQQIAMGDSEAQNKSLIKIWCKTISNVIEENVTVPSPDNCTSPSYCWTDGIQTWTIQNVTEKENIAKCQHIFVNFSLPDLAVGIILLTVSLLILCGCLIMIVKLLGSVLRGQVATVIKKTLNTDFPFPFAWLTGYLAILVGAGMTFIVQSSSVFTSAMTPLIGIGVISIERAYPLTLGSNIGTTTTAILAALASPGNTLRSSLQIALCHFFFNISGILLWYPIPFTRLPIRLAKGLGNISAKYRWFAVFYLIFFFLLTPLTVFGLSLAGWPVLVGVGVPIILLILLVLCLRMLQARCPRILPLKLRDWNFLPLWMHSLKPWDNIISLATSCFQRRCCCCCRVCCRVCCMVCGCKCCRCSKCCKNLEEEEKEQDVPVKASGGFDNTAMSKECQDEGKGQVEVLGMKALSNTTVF
Briefly: Sodium-dependent phosphate uptake of Xenopus oocytes which expressed NaPi-2b (32P). The class given is cell-based. To be noted: Xenopus oocytes expressing rat NaPi-2b, 32P radioactive phosphorus; read-out: IC50 (phosphate uptake inhibitory activity). As for the experimental part:
Pharmacological Test Example 1
Experiment of Sodium-Dependent Phosphate Uptake of Xenopus oocytes which Expressed NaPi-2b
Degenerate primers were prepared from sequences of mouse NaPi-2b disclosed in Hilfiker H. et al., Pro Natl Acad Sci USA, 95 (24): 14564-14569, […] and sequences of human and rat NaPi-2a disclosed in Magagnin S. et al., Proc Natl Aca Sci USA, 90 (13): 5979-5983, 1993. RNA was extracted from the rat small intestine using ISOGEN; manufactured by NIPPON GENE CO., LTD (Japan). 400 bp gene fragments were obtained by PCR using, as a template, a cDNA library prepared with a cDNA synthesis kit (manufactured by STRATAGENE (US)). Thereafter, the above rat small intestine cDNA library was screened using the gene fragment as a probe, and the whole gene sequence of rat NaPi-2b was cloned. cRNA was synthesized from the cloned rat NaPi-2b cDNA with a cRNA synthesis kit (manufactured by Ambion (US)). The synthesized cRNA was injected into Xenopus oocytes (obtained from COPACETIC (Japan)) with a liquid microinjector (manufactured by Drummond (US)) and was cultured for 2 days to express rat NaPi-2b. Thereafter, for a group of derivatives, phosphate uptake inhibitory activity were measured using the Xenopus oocytes with ^32P radioactive phosphorus (manufactured by Daiichi Kagaku Inc. (Japan)). […] The inhibitory activity for 300 μM and 100 μM was determined from the same inhibition curve and expressed in percentage inhibition (%) in Table 5.
Consider `CCN(CC)CCNCc1cccc(C(=O)Nc2scc(C)c2C(=O)N/N=C/c2ccc(F)cc2)c1` [Compound 583, 3-[(2-Diethylamino-ethylamino)-methyl]-N-[3-(4-fluoro-benzylidene-hydrazinocarbonyl)-4-methyl-thiophen-2-yl]-benzamide], for which the pIC50 is more than 5.52.

Turning to `Cc1ccc(/C=N/NC(=O)c2c(C)csc2NC(=O)c2cccc(CN3CCC(CO)CC3)c2)cc1C` [Compound 599, N-[3-(3,4-Dimethyl-benzylidene-hydrazinocarbonyl)-4-methyl-thiophen-2-yl]-3-(4-hydroxymethyl-piperidin-1-ylmethyl)-benzamide], the pIC50 is more than 5.52.

Consider `O=C(Nc1ccc(Cl)cc1C(=O)N/N=C/c1ccc(OC(F)(F)F)cc1)c1cccc(CSCC(O)CO)c1` (stereo not shown) [Compound 1012, N-[4-Chloro-2-(4-trifluoromethoxy-benzylidene-hydrazinocarbonyl)-phenyl]-3-(2,3-dihydroxy-propylsulfanylmethyl)-benzamide], for which the negative-log IC50 (pIC50) was 5.72.

For the compound `COc1ccc(C(=O)Nc2ccccc2C(=O)N/N=C/c2ccccc2C)cc1OC` [Compound 3, 3,4-Dimethoxy-N-[2-(2-methyl-benzylidene-hydrazinocarbonyl)-phenyl]-benzamide], the negative logarithm of the IC50 (pIC50) is 5.15.

`O=C(Nc1ccc(Br)cc1C(=O)N/N=C/c1ccc(F)cc1)c1ccc(CN2CCN(CC(=O)N3CCOCC3)CC2)cc1` [Compound 730, N-[4-Bromo-2-(4-fluoro-benzylidene-hydrazinocarbonyl)-phenyl]-4-[4-(2-morpholin-4-yl-2-oxo-ethyl)-piperazin-1-ylmethyl]-benzamide]: the negative-log IC50 (pIC50) was 4.81.

Turning to `O=C(Nc1ccc(Br)cc1C(=O)N/N=C/c1ccc(F)cc1)c1ccc(CN2CCN(CCO)CC2)cc1` [Compound 319, N-[4-Bromo-2-(4-fluoro-benzylidene-hydrazinocarbonyl)-phenyl]-4-[4-(2-hydroxy-ethyl)-piperazin-1-ylmethyl]-benzamide], the pIC50 is 5.01.

Consider `O=C(Nc1ccccc1C(=O)N/N=C/c1cccc(F)c1)c1ccccc1` [Compound 226, N-[2-(3-Fluoro-benzylidene-hydrazinocarbonyl)-phenyl]-benzamide], for which the negative-log IC50 (pIC50) is 5.77.

With `Cc1ccc(/C=N/NC(=O)c2ccccc2NC(=O)c2ccncc2)cc1C` [Compound 138, N-[2-(3,4-Dimethyl-benzylidene-hydrazinocarbonyl)-phenyl]-isonicotinamide], the pIC50 is 5.35.

Regarding `CCSCCNCc1ccc(C(=O)Nc2ccc(Br)cc2C(=O)N/N=C/c2ccc(C)c(C)c2)cc1` [Compound 764, N-[4-Bromo-2-(3,4-dimethyl-benzylidene-hydrazinocarbonyl)-phenyl]-4-[(2-ethylsulfanyl-ethylamino)-methyl]-benzamide], the negative-log IC50 (pIC50) was 5.23.

Turning to `Cc1ccc(/C=N/NC(=O)c2cc(Br)ccc2NC(=O)c2ccno2)cc1C` [Compound 512, Isoxazole-5-carboxylic acid [4-bromo-2-(3,4-dimethyl-benzylidene-hydrazinocarbonyl)-phenyl]-amide], the negative logarithm of the IC50 (pIC50) was 4.55.

For `COc1ccc(/C=N/NC(=O)c2cc(Br)ccc2NC(=O)c2ccc(OC)c(OC)c2)cc1OC` [Compound 127, N-[4-Bromo-2-(3,4-dimethoxy-benzylidene-hydrazinocarbonyl)-phenyl]-3,4-dimethoxy-benzamide], the pIC50 is 4.94.

`O=c1c2c3c(sc2nc(-c2cccc(CSc4nc[nH]n4)c2)n1/N=C/c1cccc(F)c1)CCCC3` [Compound 649, 3-[(3-Fluoro-benzylidene)-amino]-2-[3-(1H-[1,2,4]triazol-3-ylsulfanylmethyl)-phenyl]-5,6,7,8-tetrahydro-3H-benzo[4,5]thieno[2,3-d]pyrimidin-4-one]: the negative-log IC50 (pIC50) is 5.57.

The assay is the same for the next values; noted with them: phosphate uptake, oocytes expressing rat NaPi-2b; 300 μM, determined from inhibition curve.
In turn, `CCOCCN(CCOCC)Cc1ccc(C(=O)Nc2ccc(Br)cc2C(=O)N/N=C/c2ccc(OC)cc2)cc1` [Compound 739, 4-{[Bis-(2-ethoxy-ethyl)-amino]-methyl}-N-[4-bromo-2-(4-methoxy-benzylidene-hydrazinocarbonyl)-phenyl]-benzamide] displayed an inhibition at 300 µM of 58.9%.

As a reminder, the pIC50 is the IC50 on a negative log10 scale, so that one unit is a factor of ten. One may read the inhibition as the drop in the measured response relative to a control, in per cent. The low end stands for little suppression, the high end for strong suppression.
